Data on 17 compounds can be found in patent EP4578857A1, “CRYPTOLEPINE SALT DERIVATIVE, AND PREPARATION METHOD THEREFOR AND USE THEREOF” (Nankai University, priority 2023, dated 2025).

Each structure is given as a SMILES string. Where two headings read alike, the source gives them in different places.

What all share (format): in vivo
For assay [1], the system named is tobacco Mosaic virus (TMV). Description: Anti-TMV activity: live protection function. To be noted: for antiTMV activity / TMV activity: 500µg/mL, Table 4 (all three modes); for antiTMV activity: compared with commercial Ningnanmycin; for TMV activity: compared with ribavirin; for inhibition at 500 µg/mL: Tobacco mosaic virus, read-out: Relative inhibition rate (%) Live protection function. Here is the method: (§1) Determination of anti-tobacco Mosaic virus (TMV) activity by the following procedure:
(§2) The virus crude extract was centrifuged with polyethylene glycol at twice and refrigerated at 4°C for use. The absorbance of 260nm wavelength was determined by ultraviolet spectrophotometer, and the virus concentration was calculated according to the formula. Virus concentration(mg/ml) = (A260 × dilution ratio)(/E)^0.10 1cm^260nm . [formula]
(§3) After weighing, cryptolepine salt derivative, ningnanmycin and the original drug of ribavirin were dissolved in DMF to obtain 1×10^5µg/mL mother solution, and then diluted to the required concentration with 1‰ Tween 80 aqueous solution.
Select the 3-5 leaf stage of tobacco Xanthi nc with uniform growth, spray the whole plant, repeat each treatment 3 times, and set 1‰ Tween80 aqueous solution as control. 24h later, the leaf surface was coated with emery (500 mesh), the disease venom was dipped with a brush, and the whole leaf surface was gently rubbed twice along the direction of the branch pulse by using the brush, the leaf was supported by palm of hand, the virus concentration was 10µg/mL, and the leaf was washed by water after inoculation. After 3 days, the number of disease spots was recorded and the prevnetion and control effect was calculated.

The subject of assay [2] is tobacco Mosaic virus (TMV). Description: Anti-TMV activity: live treatment effect. To be noted: for inhibition at 500 µg/mL: Tobacco mosaic virus, 72 h, read-out: Relative inhibition rate (%) Live treatment effect. Here is the method: as §1, §2, §3
Select the 3-5 leaf stage of tobacco Xanthi nc with uniform growth, use a brush to vaccinate the virus in the whole leaf, the virus concentration is 10µg/mL, and the leaf was washed with running water after inoculation. After the leaves were dried, the whole plant was sprayed with test sample, repeated 3 times every treatment, and 1‰ Tween 80 aqueous solution was set as control. After 3 days, the number of disease spots was recorded and the prevnetion and control effect was calculated.

Assay [3] relates to tobacco Mosaic virus (TMV). Description: Anti-TMV activity: living passivation activity test. To be noted: for inhibition at 500 µg/mL: Tobacco mosaic virus, read-out: Relative inhibition rate (%) Living passivation activity test. Here is the method: as §1, §2, §3
Select the 3-5 leaf stage of tobacco Xanthi nc with uniform growth, mix the test sample agent with the same volume of virus juice to passivate for 30min, friction inoculation, virus concentration 20µg/mL, the leaf was washed with running water after inoculation, repeat 3 times, set 1‰ Tween 80 aqueous solution as control. 3 days later, the number of disease spots was calculated. [formula]
Anti-tobacco Mosaic virus passivation activity test of all compounds was at a treatment dose of 500µg/mL. The positive control was the commercial anti-plant virus agent viriazole.

Assay [4] concerns rice sheath blight strains. Description: Bactericidal activity test: resistance to rice sheath blight (live pot test). To be noted: for pest or weed control at 400 µg/mL: Oryza sativa, 144 h; for bactericidal activity against rice sheath blight: result in words. Here is the method:
Bactericidal activity test, the determination procedure is as follows: Test of resistance to rice sheath blight: Select uniformly growing rice seedlings and spray them on the leaves at the set concentration, set a water sprayring group as blank control, every treatment was repeated twice. After 24h, the rice seedlings were inoculated with rice sheath blight strains and placed at room temperature (25±4°C) for normal management after inoculation. The prevention and control effect was investigated by visual inspection 6 days after inoculation.

[5] abbreviates: Treatment dose 500 mg/L, tobacco Xanthi nc sprayed 24h before inoculation, virus 10µg/mL, disease spots counted after 3 days.
Where [6] appears, read: Treatment dose 500 mg/L, tobacco Xanthi nc inoculated (virus 10µg/mL), then sprayed, disease spots counted after 3 days.
Setting [7] is: Treatment dose 500 mg/L, sample mixed with virus juice for 30min, then inoculated on tobacco Xanthi nc, virus 20µg/mL, 3 days.
Setting [8] is: 400mg/L leaf spray on rice seedlings, inoculated after 24h, visual inspection 6 days after inoculation.
The mark [9] stands for this setting: 400mg/L leaf spray on rice seedlings, inoculated after 24h, visual inspection 6 days after inoculation, read-out: Resistance to rice sheath blight (%)/400mg/L.
Where [10] appears, read: live pot test, summary of Table 5 (400mg/L), read-out: bactericidal activity against rice sheath blight.
The mark [11] stands for this setting: live pot test, summary of Table 5 (400mg/L).

With `C[n+]1c2ccccc2c(NCCCN)c2[nH]c3ccccc3c21.[I-]` [Example 33], in assay [1], the antiTMV activity result is reported as “comparable to that of commercial Ningnanmycin” and the TMV activity entry is “better TMV activity than the ribavirin”. Moreover, the “Relative inhibition rate (%) Live protection function” value in assay [1] (setting [5]) stood at 57.9±4.6%. Also, the “Relative inhibition rate (%) Live treatment effect” value in assay [2] (setting [6]) is given as 51.7±3.6%. For the same compound, the “Relative inhibition rate (%) Living passivation activity test” value in assay [3] (setting [7]) came to 49.8±3.1%. Further, the “Resistance to rice sheath blight (%)/400mg/L” value in assay [4] (setting [8]) amounted to 40±0%.

For the compound `C[n+]1c2ccccc2c(NCCCCN)c2[nH]c3ccccc3c21` [Example 34], in assay [1], the antiTMV activity result was “comparable to that of commercial Ningnanmycin”. Also, in assay [1], the TMV activity result is reported as “better TMV activity than the ribavirin”. The values for the inhibition at 500 µg/mL in assay [1], in assay [2] and in assay [3] were 50.3 ± 2.1%, 43.9 ± 2% and 41.2 ± 4.6%, respectively. In addition, the pest or weed control at 400 µg/mL in assay [4] (setting [9]) turned out to be 20%.

Take `CC(N)CNc1c2ccccc2[n+](C)c2c1[nH]c1ccccc12` (centres unmarked) [Example 35]: the TMV activity result in assay [1] is “better TMV activity than the ribavirin”. The inhibition at 500 µg/mL worked out at 41 ± 2.4% in assay [1], 48 ± 1.5% in assay [2] and 44.3 ± 2.9% in assay [3]. The pest or weed control at 400 µg/mL in assay [4] (setting [9]) worked out at 25 ± 5%.

With `C[n+]1c2ccccc2c(NCC(C)(C)N)c2[nH]c3ccccc3c21` [Example 36], the inhibition at 500 µg/mL amounted to 29.8 ± 2.1% in assay [1], 30.1 ± 0.2% in assay [2] and 28.7 ± 1.1% in assay [3]. For the same compound, the pest or weed control at 400 µg/mL in assay [4] (setting [9]) stood at 35 ± 5%.

Take `CCNCCNc1c2ccccc2[n+](C)c2c1[nH]c1ccccc12` [Example 37]: the inhibition at 500 µg/mL is 31.6 ± 3.2% in assay [1], 20.7 ± 1.2% in assay [2] and 33.6 ± 0.8% in assay [3]. In assay [4] (setting [9]), the pest or weed control at 400 µg/mL came out at 40%.

In the case of `CNCCCNc1c2ccccc2[n+](C)c2c1[nH]c1ccccc12` [Example 38], the inhibition at 500 µg/mL in assay [1] stood at 35 ± 4.1%; in assay [2] it was 40.2 ± 1%; in assay [3], 30.7 ± 1.2%. Also, in assay [4] (setting [9]), the pest or weed control at 400 µg/mL came out at 30%.

Consider `CN(C)CC(C)(C)CNc1c2ccccc2[n+](C)c2c1[nH]c1ccccc12` [Example 39], for which the inhibition at 500 µg/mL in assay [1] stood at 25.4 ± 3.8%; in assay [2], 30.1 ± 0.2%; in assay [3] it was 28.9 ± 2.1%. Moreover, the pest or weed control at 400 µg/mL in assay [4] (setting [9]) came out at 25 ± 5%.

Regarding `C[n+]1c2ccccc2c(NC2CCNC2)c2[nH]c3ccccc3c21` (centres unmarked) [Example 40], in assay [1], the TMV activity entry is “better TMV activity than the ribavirin”. For the same compound, the results for the inhibition at 500 µg/mL in assay [1], in assay [2] and in assay [3] were 45.8 ± 3.8%, 39.5 ± 3.1% and 38.6 ± 2.5%, respectively. Further, in assay [4] (setting [9]), the pest or weed control at 400 µg/mL was 20%.

Consider `C[n+]1c2ccccc2c(NC2CCNCC2)c2[nH]c3ccccc3c21` [Example 41], for which, in assay [1], the TMV activity entry is reported as “better TMV activity than the ribavirin”. Besides, the values for the inhibition at 500 µg/mL in assay [1], in assay [2] and in assay [3] were 40.8 ± 4.7%, 34.1 ± 2.3% and 30.6 ± 4%, respectively. For the same compound, in assay [4] (setting [9]), the pest or weed control at 400 µg/mL amounted to 40%.

On to `C[n+]1c2ccccc2c(NCC2CCNCC2)c2[nH]c3ccccc3c21.[I-]` [Example 42], for which the “Relative inhibition rate (%) Live protection function” value in assay [1] (setting [5]) came to 28.1±3.0%. The “Relative inhibition rate (%) Live treatment effect” value in assay [2] (setting [6]) stood at 30.2±2.1%. Also, the “Relative inhibition rate (%) Living passivation activity test” value in assay [3] (setting [7]) turned out to be 25.1±0.2%. For the same compound, the “Resistance to rice sheath blight (%)/400mg/L” value in assay [4] (setting [8]) is on record as 25±5%.

Take `C[n+]1c2ccccc2c(NCC2CCCNC2)c2[nH]c3ccccc3c21` (centres unmarked) [Example 43]: the inhibition at 500 µg/mL was 26.1 ± 1% in assay [1], 28.3 ± 0.2% in assay [2] and 30 ± 2.1% in assay [3]. The pest or weed control at 400 µg/mL in assay [4] (setting [9]) was 30%.

As to `CN1CCC(Nc2c3ccccc3[n+](C)c3c2[nH]c2ccccc23)CC1` [Example 44], the inhibition at 500 µg/mL in assay [1] was found to be 27.3 ± 4.4%; in assay [2] it was 33.1 ± 0.3%; in assay [3], 35.3 ± 2.1%. Also, the values for the pest or weed control at 400 µg/mL in assay [4] (setting [9]) and in assay [4] (setting [10]) were 55 ± 5% and > 50%, respectively.

With `CN1CCC(CNc2c3ccccc3[n+](C)c3c2[nH]c2ccccc23)CC1` [Example 45], the inhibition at 500 µg/mL in assay [1] was 30.7 ± 2.6%; in assay [2] it was 28.1 ± 0.3%; in assay [3] it was 25.6 ± 1.1%. Moreover, the pest or weed control at 400 µg/mL in assay [4] (setting [9]) is 30%.

For `CN1CCCC(CNc2c3ccccc3[n+](C)c3c2[nH]c2ccccc23)C1` (centres unmarked) [Example 46], the TMV activity entry in assay [1] was “better TMV activity than the ribavirin”. Moreover, the inhibition at 500 µg/mL in assay [1] came out at 44.7 ± 4%; in assay [2], 40.1 ± 0.9%; in assay [3], 46.3 ± 3.5%. Further, the pest or weed control at 400 µg/mL in assay [4] (setting [9]) was found to be 30%.

`C[n+]1c2ccccc2c(NCCCN2CCCCC2)c2[nH]c3ccccc3c21` [Example 47]: the inhibition at 500 µg/mL in assay [1] amounted to 36.4 ± 2.8%; in assay [2] it was 33.3 ± 2%; in assay [3], 35.7 ± 0.3%. In addition, the pest or weed control at 400 µg/mL in assay [4] (setting [9]) is 45 ± 5%; in assay [4] (setting [10]), > 50%.

For `Cn1c2c3cc(Br)ccc3nc-2cc2ccccc21` [Reference Example 1, 5-methyl-7-bromo 5H-indolo[3,2-b]quinoline, reference compound], the inhibition at 500 µg/mL came out at 15.1 ± 2% in assay [1] (setting [5]), 10.5 ± 3% in assay [2] (setting [6]) and 10.2 ± 1.8% in assay [3] (setting [7]). Also, the pest or weed control at 400 µg/mL in assay [4] (setting [9]) is 0%. Also, the “bactericidal activity against rice sheath blight” value in assay [4] (setting [11]) is “no activity”.

With `C[n+]1c2ccccc2c(N2CCN(CCN)CC2)c2[nH]c3ccc(Cl)cc3c21` [Reference Example 2, reference compound], the inhibition at 500 µg/mL in assay [1] turned out to be 15.2 ± 1.1%; in assay [2], 18.1 ± 0.2%; in assay [3], 15.3 ± 2.1%. The pest or weed control at 400 µg/mL in assay [4] (setting [9]) was 0%. Also, the “bactericidal activity against rice sheath blight” value in assay [4] (setting [11]) is reported as “no activity”.
